# Numbered stars: 1 amine (or outer) side, 2 acyl side, 3 side chain; on linkers, the order of the positions; unused ones are H or OH. Bridge positions count the residues as written; N and C are the ends. Square brackets hold non-standard residues; d marks the D form. Peptide text beside a SMILES is read from it. * marks the point of attachment. ξ: configuration not given here. Bip(3'-COOH) = N[C@@H](Cc1ccc(-c2cccc(C(=O)O)c2)cc1)C(=O)O; Bip(4'-COOH) = N[C@@H](Cc1ccc(-c2ccc(C(=O)O)cc2)cc1)C(=O)O; X22 = NC(=O)c1cccc(-c2ccc(C[C@H](N[*:1])C(=O)[*:2])cc2)c1; Phe(4-COOH) = N[C@@H](Cc1ccc(C(=O)O)cc1)C(=O)O; Phe(4-CH2NH2) = NCc1ccc(C[C@H](N)C(=O)O)cc1; Bip = N[C@@H](Cc1ccc(-c2ccccc2)cc1)C(=O)O; Phe(3-Cl) = N[C@@H](Cc1cccc(Cl)c1)C(=O)O; Phe(3-Me) = Cc1cccc(C[C@H](N)C(=O)O)c1; Val(3-OH) = CC(C)(O)[C@H](N)C(=O)O; aIle = CC[C@@H](C)[C@H](N)C(=O)O; 4Pal = N[C@@H](Cc1ccncc1)C(=O)O; Cha = N[C@@H](CC1CCCCC1)C(=O)O; Cit = NC(=O)NCCC[C@H](N)C(=O)O; Ile(3ξ) = CCC(C)[C@H](N)C(=O)O; Thr(3ξ) = CC(O)[C@H](N)C(=O)O; ξCha = NC(CC1CCCCC1)C(=O)O; Carboxymethyl = O=C(O)C*; NMeA = CN[C@@H](C)C(=O)O; Orn = NCCC[C@H](N)C(=O)O; Dab = NCC[C@H](N)C(=O)O; Dap = NC[C@H](N)C(=O)O; ξC = NC(CS)C(=O)O
# Molecular target: T1, PE-labeled human PD-L1-Ig binding to Jurkat cell line over-expressing human PD-1 (Jurkat-PD-1) (Homo sapiens, UniProt Q15116)
# T1 construct: expressed in transfected cells; host or cells: Jurkat
# T1 sequence (Q15116 25-288): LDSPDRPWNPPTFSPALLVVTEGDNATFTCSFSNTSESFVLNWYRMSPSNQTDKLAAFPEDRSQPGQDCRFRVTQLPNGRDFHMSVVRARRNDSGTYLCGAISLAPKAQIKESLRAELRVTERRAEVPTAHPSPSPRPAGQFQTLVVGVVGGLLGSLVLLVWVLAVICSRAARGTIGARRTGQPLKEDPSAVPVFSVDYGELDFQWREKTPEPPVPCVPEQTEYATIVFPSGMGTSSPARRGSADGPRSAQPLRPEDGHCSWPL
# Test: Jurkat-PD-1 Cell Binding High-Content Screening Assay (CBA): Method 1
# Settings: Jurkat-hPD-1 cells, PE-labeled PD-L1-Ig 20 nM final; read-out: Jurkat HPDL1 PD1 IC50 (uM) (Method 1)
row,SMILES,IC50
1,CC(C)C[C@@H]1NC(=O)[C@H](CCN)NC(=O)[C@@H](CC(C)C)NC(=O)[C@H](C)N(C)C(=O)[C@H](CCCN)NC(=O)[C@H](Cc2ccc(-c3ccccc3)cc2)NC(=O)[C@H](C(C)C)NC(=O)[C@H](Cc2c[nH]c3ccccc23)NC(=O)[C@H](CC(=O)O)NC(=O)[C@H](Cc2ccc(O)cc2)NC(=O)[C@H](Cc2cnc[nH]2)NC(=O)CSC[C@@H](C(=O)N[C@@H](C)C(N)=O)NC(=O)[C@H]([C@@H](C)O)NC(=O)[C@H](C(C)C)NC1=O [Compound 1362] ({CH2CO}-HYDWV[Bip][Orn][NMeA][dL][Dab]LVTCA-NH2; thioether N-14),0.03 µM
2,Cc1cccc(C[C@@H]2NC(=O)[C@H](CC(=O)O)NC(=O)[C@H](Cc3ccc(OCC(=O)O)cc3)NC(=O)[C@H]([C@@H](C)O)NC(=O)CSC[C@@H](C(N)=O)NC(=O)[C@H](CC(N)=O)NC(=O)[C@H](C(C)C)NC(=O)[C@H](CC3CCCCC3)NC(=O)[C@H](CC(N)=O)NC(=O)[C@@H](CC(C)C)NC(=O)[C@H](C)N(C)C(=O)[C@H](Cc3ccc(OCC(=O)O)cc3)NC(=O)[C@H](Cc3ccc(-c4ccccc4)cc3)NC(=O)[C@H](Cc3ccc(OCC(=O)O)cc3)NC2=O)c1 [Compound 1675] ({CH2CO}-TY(Carboxymethyl)D[Phe(3-Me)]Y(Carboxymethyl)[Bip]Y(Carboxymethyl)[NMeA][dL]N[Cha]VNC-NH2; thioether N-14),0.12 µM
3,CC(C)C[C@@H]1NC(=O)[C@H](CCN)NC(=O)[C@@H](CC(C)C)NC(=O)[C@H](C)N(C)C(=O)[C@H](CCCNC(N)=O)NC(=O)[C@H](Cc2ccc(-c3ccccc3)cc2)NC(=O)[C@H](C(C)C)NC(=O)[C@H](Cc2c[nH]c3ccccc23)NC(=O)[C@H](CC(=O)O)NC(=O)[C@H](Cc2ccc(CN)cc2)NC(=O)[C@H](CC(N)=O)NC(=O)CSC[C@@H](C(=O)N[C@@H](C)C(N)=O)NC(=O)[C@H]([C@@H](C)O)NC(=O)[C@H](C(C)C)NC1=O [Compound 1322] ({CH2CO}-N[Phe(4-CH2NH2)]DWV[Bip][Cit][NMeA][dL][Dab]LVTCA-NH2; thioether N-14),0.02 µM
4,CCC(C)[C@@H]1NC(=O)[C@H](Cc2ccc(-c3ccccc3)cc2)NC(=O)[C@H](C(C)C)NC(=O)[C@H](Cc2c[nH]c3ccccc23)NC(=O)[C@H](CC(N)=O)NC(=O)[C@H](Cc2ccc(O)cc2)NC(=O)[C@H](CC(N)=O)NC(=O)CSCC(C(=O)NCC(N)=O)NC(=O)[C@H](C(C)O)NC(=O)[C@H](C(C)C)NC(=O)[C@H](CC2CCCCC2)NC(=O)[C@H](CC(N)=O)NC(=O)[C@@H](CC(C)C)NC(=O)[C@H](C)N(C)C1=O (stereo partly drawn) [Compound 2066] ({CH2CO}-NYNWV[Bip][Ile(3ξ)][NMeA][dL]N[Cha]V[Thr(3ξ)][ξC]G-NH2; thioether N-14),0.35 µM
5,CC(C)C[C@@H]1NC(=O)[C@H](Cc2c[nH]c3ccccc23)NC(=O)[C@H](CC(=O)O)NC(=O)[C@H](Cc2ccc(O)cc2)NC(=O)[C@H](Cc2ccncc2)NC(=O)CSC[C@@H](C(=O)N[C@@H](C)C(N)=O)NC(=O)[C@H](CO)NC(=O)[C@H](C(C)C)NC(=O)[C@H](CC(C)C)NC(=O)[C@H](CC(N)=O)NC(=O)[C@@H](C)NC(=O)[C@H](C)N(C)C(=O)[C@H](C(C)C)NC(=O)[C@H](Cc2ccc(-c3ccccc3)cc2)NC1=O [Compound 1730] ({CH2CO}-[4Pal]YDWL[Bip]V[NMeA][dA]NLVSCA-NH2; thioether N-14),0.01 µM
6,CCC(C)[C@@H]1NC(=O)[C@H](Cc2ccc(-c3ccccc3)cc2)NC(=O)[C@H](C(C)C)NC(=O)[C@H](Cc2c[nH]c3ccccc23)NC(=O)[C@H](CC(=O)O)NC(=O)[C@H](Cc2ccc(O)cc2)NC(=O)[C@H](CCN)NC(=O)CSC[C@@H](C(=O)N[C@H](C(N)=O)C(C)C)NC(=O)[C@H](C(C)O)NC(=O)[C@H](C(C)(C)O)NC(=O)[C@H](CC2CCCCC2)NC(=O)[C@H](CC(N)=O)NC(=O)[C@@H](CC(C)C)NC(=O)[C@H](C)N(C)C1=O (stereo partly drawn) [Compound 2173] ({CH2CO}-[Dab]YDWV[Bip][Ile(3ξ)][NMeA][dL]N[Cha][Val(3-OH)][Thr(3ξ)]CV-NH2; thioether N-14),0.19 µM
7,CC(C)C[C@@H]1NC(=O)[C@H](CCN)NC(=O)[C@@H](CC(C)C)NC(=O)[C@H](C)N(C)C(=O)[C@H](C(C)C)NC(=O)[C@H](Cc2ccc(-c3ccccc3)cc2)NC(=O)[C@H](C(C)C)NC(=O)[C@H](Cc2cccc(Cl)c2)NC(=O)[C@H](CC(=O)O)NC(=O)[C@H](Cc2ccc(O)cc2)NC(=O)[C@H](CC(N)=O)NC(=O)CSC[C@@H](C(=O)N[C@@H](C)C(N)=O)NC(=O)[C@H]([C@@H](C)O)NC(=O)[C@H](C(C)C)NC1=O [Compound 1265] ({CH2CO}-NYD[Phe(3-Cl)]V[Bip]V[NMeA][dL][Dab]LVTCA-NH2; thioether N-14),0.01 µM
8,CC(C)C[C@@H]1NC(=O)[C@H](Cc2c[nH]c3ccccc23)NC(=O)[C@H](CC(=O)O)NC(=O)[C@H](Cc2ccc(OCC(=O)O)cc2)NC(=O)[C@H](Cc2ccc(-c3ccc(C(=O)O)cc3)cc2)NC(=O)CSC[C@@H](C(=O)N[C@@H](CC(N)=O)C(N)=O)NC(=O)[C@H](CO)NC(=O)[C@H](C(C)C)NC(=O)[C@H](CC(C)C)NC(=O)[C@H](CCN)NC(=O)[C@@H](CC(C)C)NC(=O)[C@H](C)N(C)C(=O)[C@H](Cc2cnc[nH]2)NC(=O)[C@H](Cc2ccc(-c3ccccc3)cc2)NC1=O [Compound 2097] ({CH2CO}-[Bip(4'-COOH)]Y(Carboxymethyl)DWL[Bip]H[NMeA][dL][Dab]LVSCN-NH2; thioether N-14),0.03 µM
9,CC(C)C[C@@H]1NC(=O)[C@H](CCN)NC(=O)[C@@H](CC(C)C)NC(=O)[C@H](C)N(C)C(=O)[C@H](CCCNC(=N)N)NC(=O)[C@H](Cc2ccc(-c3ccccc3)cc2)NC(=O)[C@H](C(C)C)NC(=O)[C@H](Cc2c[nH]c3ccccc23)NC(=O)[C@H](CC(=O)O)NC(=O)[C@H](Cc2cnc[nH]2)NC(=O)[C@H](Cc2ccccc2)NC(=O)CSC[C@@H](C(=O)N[C@@H](C)C(N)=O)NC(=O)[C@H]([C@@H](C)O)NC(=O)[C@H](C(C)C)NC1=O [Compound 1130] ({CH2CO}-FHDWV[Bip]R[NMeA][dL][Dab]LVTCA-NH2; thioether N-14),0.18 µM
10,CC(C)C[C@@H]1NC(=O)[C@H](Cc2c[nH]c3ccccc23)NC(=O)[C@H](CC(=O)O)NC(=O)[C@H](Cc2ccc(O)cc2)NC(=O)[C@H](Cc2ccccc2)NC(=O)CSC[C@@H](C(=O)NCC(N)=O)NC(=O)[C@H](CO)NC(=O)[C@H](C(C)C)NC(=O)[C@H](CC(C)C)NC(=O)[C@H](CC(N)=O)NC(=O)[C@@H](CO)NC(=O)[C@H](C)N(C)C(=O)[C@H](C(C)C)NC(=O)[C@H](Cc2ccc(-c3ccccc3)cc2)NC1=O [Compound 1819] ({CH2CO}-FYDWL[Bip]V[NMeA][dS]NLVSCG-NH2; thioether N-14),0.43 µM
11,CC(C)C[C@@H]1NC(=O)[C@H](CCN)NC(=O)[C@@H](CC(C)C)NC(=O)[C@H](C)N(C)C(=O)[C@H](C(C)C)NC(=O)[C@H](Cc2ccc(-c3ccccc3)cc2)NC(=O)[C@H](C(C)C)NC(=O)[C@H](Cc2c[nH]c3ccccc23)NC(=O)[C@H](CC(=O)O)NC(=O)[C@H](Cc2ccc(C(=O)O)cc2)NC(=O)[C@H](Cc2ccc(OCC(=O)O)cc2)NC(=O)CSC[C@@H](C(=O)N[C@@H](C)C(N)=O)NC(=O)[C@H]([C@@H](C)O)NC(=O)[C@H](C(C)C)NC1=O [Compound 1570] ({CH2CO}-Y(Carboxymethyl)[Phe(4-COOH)]DWV[Bip]V[NMeA][dL][Dab]LVTCA-NH2; thioether N-14),0.01 µM
12,CCC(C)[C@@H]1NC(=O)[C@H](Cc2ccc(-c3ccccc3)cc2)NC(=O)[C@H](C(C)C)NC(=O)[C@H](Cc2c[nH]c3ccccc23)NC(=O)[C@H](CC(N)=O)NC(=O)[C@H](Cc2ccc(-c3cccc(C(=O)O)c3)cc2)NC(=O)[C@H](Cc2ccncc2)NC(=O)CSC[C@@H](C(=O)N[C@@H](C)C(=O)N[C@@H](CCCCN)C(N)=O)NC(=O)[C@H](C(C)O)NC(=O)[C@H](C(C)C)NC(=O)C(CC2CCCCC2)NC(=O)[C@H](CC(N)=O)NC(=O)[C@@H](CC(C)C)NC(=O)[C@H](C)N(C)C1=O (stereo partly drawn) [Compound 2019] ({CH2CO}-[4Pal][Bip(3'-COOH)]NWV[Bip][Ile(3ξ)][NMeA][dL]N[ξCha]V[Thr(3ξ)]CAK-NH2; thioether N-14),0.28 µM
13,CCC(C)[C@@H]1NC(=O)[C@H](Cc2ccc(-c3ccccc3)cc2)NC(=O)[C@H](CC(C)C)NC(=O)[C@H](Cc2c[nH]c3ccccc23)NC(=O)[C@H](CC(=O)O)NC(=O)[C@H](Cc2ccc(C(=O)O)cc2)NC(=O)[C@H](Cc2ccc(OCC(=O)O)cc2)NC(=O)CSC[C@@H](C(=O)N[C@@H](CC(N)=O)C(N)=O)NC(=O)[C@H](CO)NC(=O)[C@H](C(C)(C)O)NC(=O)[C@H](CC2CCCCC2)NC(=O)[C@H](CCN)NC(=O)[C@@H](CC(C)C)NC(=O)[C@H](C)N(C)C1=O (stereo partly drawn) [Compound 1916] ({CH2CO}-Y(Carboxymethyl)[Phe(4-COOH)]DWL[Bip][Ile(3ξ)][NMeA][dL][Dab][Cha][Val(3-OH)]SCN-NH2; thioether N-14),0.02 µM
14,CC(C)C[C@@H]1NC(=O)[C@H](Cc2c[nH]c3ccccc23)NC(=O)[C@H](CC(=O)O)NC(=O)[C@H](Cc2ccc(O)cc2)NC(=O)[C@H](Cc2ccccc2)NC(=O)CSC[C@@H](C(=O)N[C@@H](C)C(N)=O)NC(=O)[C@H](CO)NC(=O)[C@H](C(C)C)NC(=O)[C@H](CC(C)C)NC(=O)[C@H](CC(=O)O)NC(=O)[C@@H](C)NC(=O)[C@H](C)N(C)C(=O)[C@H](C(C)C)NC(=O)[C@H](Cc2ccc(-c3cccc(C(N)=O)c3)cc2)NC1=O [Compound 1830] ({CH2CO}-FYDWL[X22]V[NMeA][dA]DLVSCA-NH2; thioether N-14),0.9 µM
15,CC[C@@H](C)[C@@H]1NC(=O)[C@H](Cc2ccc(-c3ccccc3)cc2)NC(=O)[C@H](CC(C)C)NC(=O)[C@H](Cc2cccc(C)c2)NC(=O)[C@H](CC(=O)O)NC(=O)[C@H](Cc2ccc(OCC(=O)O)cc2)NC(=O)[C@H](CN)NC(=O)CSC[C@@H](C(N)=O)NC(=O)[C@H](CO)NC(=O)[C@H](C(C)C)NC(=O)[C@H](CC(C)C)NC(=O)[C@H](CC(N)=O)NC(=O)[C@@H](CC(C)C)NC(=O)[C@H](C)N(C)C1=O [Compound 1640] ({CH2CO}-[Dap]Y(Carboxymethyl)D[Phe(3-Me)]L[Bip][aIle][NMeA][dL]NLVSC-NH2; thioether N-14),0.1 µM

# — US20240409585A1, “MACROCYCLIC IMMUNOMODULATORS” (priority 2021, published 2024)
